In assay [1] the target is T1, Bovine Striatum (Bos taurus, UniProt P79266).
T1 construct: tissue homogenate (striatum 0.26 mg protein in 2 ml final volume); from tissue; host or cells: bovine striatum homogenate (membrane pellet)
T1 sequence (P79266 1-454): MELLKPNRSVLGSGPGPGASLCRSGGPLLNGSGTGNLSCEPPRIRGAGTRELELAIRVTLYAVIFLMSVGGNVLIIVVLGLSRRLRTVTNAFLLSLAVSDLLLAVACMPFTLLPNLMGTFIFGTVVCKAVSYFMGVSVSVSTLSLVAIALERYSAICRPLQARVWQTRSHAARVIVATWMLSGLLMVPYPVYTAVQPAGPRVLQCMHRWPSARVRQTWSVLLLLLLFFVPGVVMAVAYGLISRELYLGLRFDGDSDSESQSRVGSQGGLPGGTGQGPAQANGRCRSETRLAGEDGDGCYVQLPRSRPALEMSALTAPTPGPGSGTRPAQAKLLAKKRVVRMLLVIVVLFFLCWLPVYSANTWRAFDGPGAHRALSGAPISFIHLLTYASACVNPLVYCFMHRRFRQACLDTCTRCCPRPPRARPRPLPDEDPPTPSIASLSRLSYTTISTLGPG
The assay is described as follows: In vitro receptor binding assay, inhibition of ³H-CCK-8-(SO₃H) binding to bovine striatum homogenate. The following applies: ³H-CCK-8-(SO₃H) 0.15 nM, 30 min at 25° C; read-out: Bovine Striatum (IC₅₀ value). Here is the method:
(§1) The tissue was homogenized 2 x for approx. 15 sec. at 0°C using a Polytron homogenizer at a setting of 6. The tissue was isolated by centrifugation at 48,000 x g for 10 min. at 0°C. […] Samples were incubated for 30 min. at 25° C and the incubation terminated by pouring the mixture onto a pre-wet Whatman GF/B filter on a Sandbeck Vacuum Filtration Manifold. The incubation tubes were washed with 2 x 3 ml of ice-cold HEPES Buffer #2 and the wash filtered through the GF/B filter. The filter was air dried for 10 min. and then placed in a scintillation vial with 12 ml of Beckman HP/b Ready-Solv scintillation cocktail. The vials were shaken for 2 hours and then counted using a Beckman Model 7800 liquid scintillation spectrometer.

In assay [2] the target is T2, Rat Pancreas (Rattus norvegicus, UniProt P30551).
T2 construct: pancreas 0.165 mg protein in 1 ml final volume; from tissue; host or cells: rat pancreas homogenate (membrane pellet)
T2 sequence (P30551 1-444): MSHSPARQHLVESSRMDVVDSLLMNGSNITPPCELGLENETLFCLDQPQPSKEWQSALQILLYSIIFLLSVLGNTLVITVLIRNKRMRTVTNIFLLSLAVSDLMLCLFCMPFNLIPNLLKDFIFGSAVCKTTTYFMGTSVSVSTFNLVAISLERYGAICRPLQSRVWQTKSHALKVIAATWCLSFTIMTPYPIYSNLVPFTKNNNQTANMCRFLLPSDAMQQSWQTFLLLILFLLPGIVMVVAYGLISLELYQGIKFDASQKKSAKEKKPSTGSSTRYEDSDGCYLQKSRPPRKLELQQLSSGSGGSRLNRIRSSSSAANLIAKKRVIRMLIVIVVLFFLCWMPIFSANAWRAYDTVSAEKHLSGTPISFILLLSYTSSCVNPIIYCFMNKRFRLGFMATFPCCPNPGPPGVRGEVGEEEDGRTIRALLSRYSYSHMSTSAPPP
The assay is described as follows: In vitro receptor binding assay, inhibition of ³H-CCK-8-(SO₃H) binding to rat pancreas homogenate. The note with it: ³H-CCK-8-(SO₃H) 0.15 nM, 30 min at 25° C; read-out: Rat Pancreas (IC₅₀ value). The procedure: as §1

Our source for the IC50 values is patent EP0296574A2, “Cholecystokinin analogs for controlling appetite” (F. HOFFMANN-LA ROCHE AG, priority 1987, dated 1988).

Structures are written as SMILES. Where a SMILES comes first, the peptide text is derived from it. [ ]: non-standard residue; d: D form. Thr(SO3H) = C[C@@H](OS(=O)(=O)O)[C@H](N)C(=O)O; sY = N[C@@H](Cc1ccc(OS(=O)(=O)O)cc1)C(=O)O; NMeF = CN[C@@H](Cc1ccccc1)C(=O)O; Nle = CCCC[C@H](N)C(=O)O

In the case of `CSCC[C@H](NC(=O)[C@H](Cc1c[nH]c2ccccc12)NC(=O)CNC(=O)[C@H](Cc1ccc(OS(=O)(=O)O)cc1)NC(C)=O)C(=O)N[C@H](C(=O)N(C)[C@@H](Cc1ccccc1)C(N)=O)[C@@H](C)OS(=O)(=O)O` [Example 2, Ac-Tyr(SO₃H)-Gly-Trp-Met-Thr(SO₃H)-N-methyl-Phe-NH₂] (Ac-[sY]GWM[Thr(SO3H)][NMeF]-NH2), the IC50 in assay [1] is 1600 nM; in assay [2] it was 70 nM.
In the case of `CCCC[C@H](NC(=O)[C@H](Cc1ccc(OS(=O)(=O)O)cc1)NC(C)=O)C(=O)NCC(=O)N[C@@H](Cc1c[nH]c2ccccc12)C(=O)N[C@@H](CCCC)C(=O)N[C@H](C(=O)N(C)[C@@H](Cc1ccccc1)C(N)=O)[C@@H](C)OS(=O)(=O)O` [Example 1, Ac-Tyr(SO₃H)-Nle-Gly-Trp-Nle-Thr(SO₃H)-N-methyl-Phe-NH₂] (Ac-[sY][Nle]GW[Nle][Thr(SO3H)][NMeF]-NH2), the IC50 came to 245 nM in assay [1] and 0.14 nM in assay [2].
In the case of `CSCC[C@H](NC(=O)[C@H](Cc1ccc(OS(=O)(=O)O)cc1)NC(=O)[C@@H](N)CC(=O)O)C(=O)NCC(=O)N[C@@H](Cc1c[nH]c2ccccc12)C(=O)N[C@@H](CCSC)C(=O)N[C@@H](CC(=O)O)C(=O)N[C@@H](Cc1ccccc1)C(N)=O` [CCK-8, reference compound], the values for the IC50 in assay [1] and in assay [2] were 1 to 3.2 nM and 1 to 4.6 nM, respectively.
